Test results as given in patent publication US20230210790A1, “GEL FOR USE IN GASTROINTESTINAL ENDOSCOPY AND ENDODERMAL, EPIDERMAL, AND OTHER MUCOSAL USES” (The Johns Hopkins University, priority 2020, published 2023).

System: bleeding ulcers in a live porcine model
Experiment: In vivo bleeding control by injectable gel, porcine bleeding model
Set-up: species or system Yorkshire pigs
Details: 5 mL injected adjacent to bleeding ulcer
Procedure: To test the efficacy of epinephrine gels for bleeding control, a porcine bleeding model was created.
After ulcer creation, gel formulations or saline (negative control), epinephrine 1:10,000 (positive control) of 5 mL each were injected adjacent to the bleeding ulcer.

CNC[C@H](O)c1ccc(O)c(O)c1 [Epinephrine 1:10,000, Epinephrine]
No: Time at 5 min, bleeding present | Time at 10 min, bleeding present | Time at 15 min, bleeding present
